From patent US12459912B2 (priority 2020, dated 2025)
Where “and” joins values, the source holds several entries; their conditions need not be identical. Identical values can stand only once.

Assays:
[1] = molecular target: 5-Hydroxytryptamine (Serotonin) Receptor 2B (5-HT2B) (Homo sapiens, UniProt P41595); assay: 5-HT2B/Calcium Flux; format: cell-based; conditions: EC50 (μM)
[2] = molecular target: ADRB2 (Adrenergic Receptor β2) (Homo sapiens, UniProt P07550); assay: ADRB2/cAMP; format: cell-based; conditions: EC50 (μM)
[3] = molecular target: AVPR1A (Arginine Vasopressin Receptor 1A) (Homo sapiens, UniProt P37288); assay: AVPR1A/Calcium Flux; format: cell-based
[4] = molecular target: DRD2S (Dopamine Receptor D2) (Homo sapiens, UniProt P14416); assay: DRD2S/cAMP; format: cell-based
[5] = molecular target: T1, nAChR(a4/b2) (Nicotinic acetylcholine Receptor α4 β2) (Homo sapiens, UniProt P17787+P43681); assay: cell-based; conditions: EC50 (μM)
T1 construct: expressed in transfected cells

[6] = molecular target: T2, hERG (Homo sapiens, UniProt Q12809); assay: hERG/Ion Channel; format: cell-based
T2 construct: expressed in transfected cells

[7] = molecular target: T3, NET (Norepinephrine transporter) (Homo sapiens, UniProt P23975); assay: NET/Transporter (fluorescent substrate uptake); format: cell-based
T3 construct: expressed in transfected cells

[8] = molecular target: T4, MAOA (Monoamine oxidase type A) (Homo sapiens, UniProt P21397); assay: MAOA/Enzymatic; format: biochemical
T4 construct: purchased Sigma

[9] = molecular target: T5, COX1 (Cyclooxygenase 1) (Homo sapiens, UniProt P23219); assay: COX1/Enzymatic; format: biochemical
T5 construct: purchased BPS Bioscience

[10] = molecular target: T6, PDE3A (cGMP-inhibited cyclic nucleotide phosphodiesterase 3A) (Homo sapiens, UniProt Q14432); assay: PDE3A/Enzymatic; format: biochemical
T6 construct: purchased Signal Chem

[11] = molecular target: T7, INSR (Insulin Receptor (tyrosine kinase)) (Homo sapiens, UniProt P06213); assay: INSR/Binding (KINOMEscan)
T7 construct: made in house; host or cells: E. coli BL21-derived host (T7 phage) or HEK-293

[12] = molecular target: AR (Nuclear Hormone Androgen Receptor) (Homo sapiens, UniProt P10275); assay: AR/NHR Nuclear Translocation; format: cell-based

Structure (SMILES): CNC(C)Cc1ccc2ccsc2c1 (centres unmarked) [drawing 522]
- EC50 ([1]; agonist): > 10 µM
- EC50 ([1]; antagonist): 0.072 µM
- EC50 ([2]; agonist): > 10 µM
- EC50 ([2]; antagonist): 5.79 µM
- EC50 [3]: > 10 µM
- EC50 [4]: > 10 µM
- EC50 [5]: > 10 µM and 4.44 µM
- EC50 [6]: > 10 µM
- EC50 [7]: 0.684 µM
- EC50 [8]: 0.945 µM
- EC50 [9]: > 10 µM
- EC50 [10]: > 10 µM
- EC50 [11]: > 10 µM
- EC50 [12]: > 10 µM
